This assay deals with T1, fibrinogen binding to platelets (glycoprotein IIb/IIIa) (Homo sapiens, UniProt P05106+P08514).
T1 construct: Washed human platelets were prepared from platelet-rich plasma by gel filtration; from tissue
The assay can be described thus: Test 1: Fibrinogen Binding to Platelets (FITC-fibrinogen, flow cytometry). The following applies: washed human platelets activated with 20 μM ADP, fixed; 10 μg/ml FITC-fibrinogen; 30 minutes at room temperature; read-out: IC50 (dose required to inhibit the binding by 50%). As to the method: Test 1: Fibrinogen Binding to Platelets
Washed human platelets were prepared from platelet-rich plasma by gel filtration. The washed platelets were activated with 20 μM ADP for 10 minutes and then fixed for 30 minutes with 0.8% paraformaldehyde. The platelets were then washed by centrifugation and suspended in HEPES-Tyrodes buffer containing […].
350 μl of platelets were incubated at a final concentration of 2×10^8/ml with 10 μg/ml FITC-fibrinogen and test compound. The reaction was left for 30 minutes at room temperature. The FITC fluoresence of bound fibrinogen was measured by using a FACS can flow cytometer.
Specific binding was calculated by subtracting the binding in the presence of 50-fold excess unlabeled fibrinogen. Result was expressed at IC50 value, i.e. dose required to inhibit the binding by 50%.
On the technique in general: A flow cytometer gives signals particle by particle.

pIC50: −log10 of the molar value.

By pIC50 is commonly meant the negative decadic logarithm of the IC50, by convention in mol/L.

T1 sequence (P08514 32-887 limits assumed): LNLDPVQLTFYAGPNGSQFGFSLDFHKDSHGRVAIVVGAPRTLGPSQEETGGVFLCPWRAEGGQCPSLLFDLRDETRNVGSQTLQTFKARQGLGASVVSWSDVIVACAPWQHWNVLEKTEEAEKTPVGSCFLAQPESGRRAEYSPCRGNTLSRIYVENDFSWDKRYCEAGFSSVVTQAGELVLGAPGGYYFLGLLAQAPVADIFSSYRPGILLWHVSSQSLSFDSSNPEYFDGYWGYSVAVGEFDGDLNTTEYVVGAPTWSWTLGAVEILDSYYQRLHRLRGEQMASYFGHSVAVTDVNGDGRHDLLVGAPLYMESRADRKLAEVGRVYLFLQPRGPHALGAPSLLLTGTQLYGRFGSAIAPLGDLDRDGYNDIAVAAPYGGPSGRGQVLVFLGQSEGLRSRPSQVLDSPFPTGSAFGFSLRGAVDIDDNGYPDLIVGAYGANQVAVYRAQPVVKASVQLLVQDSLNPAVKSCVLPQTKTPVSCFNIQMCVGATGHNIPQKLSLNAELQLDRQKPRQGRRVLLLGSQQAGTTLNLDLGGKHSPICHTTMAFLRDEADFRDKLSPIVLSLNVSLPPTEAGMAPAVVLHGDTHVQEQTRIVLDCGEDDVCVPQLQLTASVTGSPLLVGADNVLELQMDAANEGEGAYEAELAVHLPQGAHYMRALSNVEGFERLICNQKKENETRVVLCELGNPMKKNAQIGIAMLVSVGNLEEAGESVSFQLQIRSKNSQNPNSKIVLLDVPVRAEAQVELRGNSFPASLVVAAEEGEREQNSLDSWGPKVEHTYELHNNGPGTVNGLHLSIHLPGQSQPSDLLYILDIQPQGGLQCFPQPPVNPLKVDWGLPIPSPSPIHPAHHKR
T1 sequence (P08514 891-1039 limits assumed): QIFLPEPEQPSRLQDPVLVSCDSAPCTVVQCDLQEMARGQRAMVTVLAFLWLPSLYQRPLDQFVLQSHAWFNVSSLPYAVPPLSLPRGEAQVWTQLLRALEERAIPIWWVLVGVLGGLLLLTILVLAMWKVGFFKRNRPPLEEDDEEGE
T1 sequence (P05106 27-788): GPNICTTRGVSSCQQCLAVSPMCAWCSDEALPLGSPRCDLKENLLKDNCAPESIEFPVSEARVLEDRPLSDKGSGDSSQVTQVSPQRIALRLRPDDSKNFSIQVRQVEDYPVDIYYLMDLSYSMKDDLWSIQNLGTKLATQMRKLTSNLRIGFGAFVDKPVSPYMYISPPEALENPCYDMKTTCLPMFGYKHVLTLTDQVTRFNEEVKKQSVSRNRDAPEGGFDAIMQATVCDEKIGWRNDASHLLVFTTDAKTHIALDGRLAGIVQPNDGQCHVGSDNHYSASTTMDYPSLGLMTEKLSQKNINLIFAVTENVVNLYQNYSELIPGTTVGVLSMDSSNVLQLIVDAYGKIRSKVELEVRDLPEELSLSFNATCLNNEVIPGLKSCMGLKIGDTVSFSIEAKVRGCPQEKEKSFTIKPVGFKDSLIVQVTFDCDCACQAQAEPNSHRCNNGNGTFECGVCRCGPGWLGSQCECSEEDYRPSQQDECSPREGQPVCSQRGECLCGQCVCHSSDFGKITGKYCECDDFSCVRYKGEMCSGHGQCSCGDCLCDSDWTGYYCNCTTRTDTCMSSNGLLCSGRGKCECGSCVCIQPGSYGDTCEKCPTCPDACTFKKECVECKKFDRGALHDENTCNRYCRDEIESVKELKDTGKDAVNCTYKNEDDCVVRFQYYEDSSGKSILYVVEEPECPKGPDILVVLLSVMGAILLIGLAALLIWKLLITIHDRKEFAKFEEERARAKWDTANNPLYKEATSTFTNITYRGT

Turning to `CC(=O)NC(CNC(=O)[C@@H]1CCCN(C(=O)CCC2CCNCC2)C1)C(=O)O` (stereo partly shown) [Example 1], the negative-log IC50 (pIC50) was 7.80.

The values above are taken from patent publication US20010016571A1, “N-[ (R) -1-{3- (4- piperidyl) propionyl } -3-piperidylcarbonyl] -2 (S) -acetylamino-beta -alanine as fibrinogen receptor antagonist” (FUJISAWA PHARMACEUTICAL CO., LTD., priority 1996, published 2001).
